Patent US6489356B2, “Method for treating pain in humans” (priority 2000, dated 2002)
“Also recorded” adds a separate entry of the source. Like-named read-outs stand apart in the source and are kept apart here.

Tests used:
[1] = molecular target: T1, human recombinant A1 adenosine receptors (Homo sapiens, UniProt P30542); assay: cyclic AMP production in CHO cells expressing the A1 adenosine receptor; type: cell-based
T1 construct: expressed in transfected cells; host or cells: CHO cells (CHO: huA1)
T1 sequence (P30542 1-326): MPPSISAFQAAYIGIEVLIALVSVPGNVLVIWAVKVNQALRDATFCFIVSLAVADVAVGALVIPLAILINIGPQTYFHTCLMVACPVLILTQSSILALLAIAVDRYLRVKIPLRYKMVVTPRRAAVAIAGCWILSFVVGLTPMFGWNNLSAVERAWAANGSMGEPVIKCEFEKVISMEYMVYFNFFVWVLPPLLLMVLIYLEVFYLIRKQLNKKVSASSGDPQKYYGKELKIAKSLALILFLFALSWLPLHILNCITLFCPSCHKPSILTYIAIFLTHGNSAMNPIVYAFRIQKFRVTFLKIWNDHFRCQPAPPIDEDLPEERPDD
Description: Cells were removed from liquid nitrogen storage when needed, and grown in Ham's F-12 culture medium with 10% fetal bovine serum and 0.5 mg/ml of antibiotic G-418. Aliquots of cells were placed into 12-well cultured plates with culture medium, serum, and antibiotic for 48-72 hours, by which time the cells had grown to a confluent monolayer.
To begin an experiment, growth medium was removed from the culture plates and cells were washed once with Hanks' buffered saline solution. […] After 6 min of incubation at 36° C. in the presence of drugs, the incubation solution was removed and hydrochloric (final concentration, 50 mM) was added to terminate drug action.
The content of cAMP in acidified extracts of cells was determined by radioimmunoassay as previously described (12). The compounds listed in reference 7 (U.S. Pat. No. 5,939,432) relating to allosteric enhancers, were tested using this method.
Because the magnitude of the effects of allosteric enhancers on cells changed with time and batch of cells, the actions of each test compound to enhance the effect of CPA (and thus reduce cAMP content of CHO cells) were normalized to the response of cells to 10 μM PD 81,723. […] Enhancement by Compound T62 began at 10 nM. There was no antagonism of this effect even at 10 μM of Compound T62.

[2] = system: mechanical hypersensitivity after spinal nerve ligation in the rat; assay: spinal nerve ligation model of neuropathic pain, von Frey withdrawal threshold; type: in vivo; details: for dose returning sensitivity (withdrawal threshold) to normal: rat
From the text: Following Animal Care and Use Committee approval, mechanical hypersensitivity was generated in male Sprague-Dawley rats as described in the following paper. (Kim,S. H. and Chung, J. M., An experimental model for peripheral neuropathy produced by segmental spinal nerve ligation in the rat, Pain, 50 (1992) 355-363. Briefly, under general anesthesia with inhalational halothane, the left L5 and L6 spinal nerves were identified through a small laminotomy and tightly ligated. Approximately one week later, an intrathecal catheter was placed under general anesthesia by insertion under direct vision of a polyethylene catheter through a small slit in the dura at the cisterna magnum and advanced 8.5 cm such that the catheter tip resided in the lower lumbar intrathecal space. Animals were studied approximately one week later.
Ligation of the lumbar spinal nerves results in a primarily unilateral increase in the sensitivity to light touch on the operated side. Sensitivity was assessed via application of calibrated von Frey filaments. The withdrawal threshold was determined using an up down method as described in Chaplan, S. R., Bach, F. W., Pogrel, J. W., Chung, J. M., and Yaksh, T. L., Quantitative assessment of tactile allodynia in the rat paw, J. Neurosci. Methods, 53 (1994) 55-63.
Von Frey filaments are scientific apparatus designed to apply a pre-determined pressure to a surface. These filaments are flexible bristles with a flat tip. The applied pressure is determined by the diameter of the filament.
In these studies, the animals are placed on top of a wired cage. The goal of these studies is to determine the pressure at which the animal perceives the pressure applied as painful and lifts its foot. The scientist determines the discomfort pressure threshold by pressing the tip of von Frey filaments, one filament at a time, to the bottom of the foot through the wired cage floor. When a slight pressure is applied to the underside of the foot, the animal feels the sensation but it will not lift its foot because this sensation is not painful, or uncomfortable.
In a normal animal, the threshold for discomfort is approximately 35 g pressure. In an animal whose foot is rendered more sensitive to pressure, the withdrawal threshold is less than 4 g. That is, a pressure that is not perceived as pain in the unaltered, control foot will be perceived as a painful stimulus in the surgically altered foot.
Mechanical withdrawal threshold was determined before and at intervals after intrathecal injection of Compound T62, 1-5 μg. […] In the study, the investigator was blinded to the dose administered. Compound T62 was dissolved in cyclodextrin, which had no effect on withdrawal threshold when administered alone.
Animals received 6 injections, each separated by a minimum of 4 days to prevent development of tolerance. The withdrawal threshold to mechanical stimulation with von Frey filaments was determined before and at intervals of […] following intrathecal injection, then again at 20 hours following injection. A dose response was determined using the time of peak effect (2 hr for each compound) and the ED50 determined by linear regression.
The ED50 for the mixture (total of each component combined) was determined by linear regression, an isobologram constructed, and the observed ED50 was compared to the theoretical ED50 by a t-test as previously described in Tallarida, R. J., Statistical analysis of drug combinations for synergism, Pain, 49 (1992) 93-97. In order to determine the site of action of Compound T62, two experiments were performed. […]
Compound T62 was dissolved in 45% […] (RBI, Natick, Mass. ). Drugs were administered intrathecal in a 5 μl volume followed by 10 μl of saline to flush the catheter.
Data are presented as median±25th and 75th percentile (for raw withdrawal thresholds) or by mean±SE. Linear regression was used to calculate the ED50 for each drug alone and for the fixed ratio combination. […]

[3] = system: mouse; type: in vivo; details: 1024 mg/kg i.p., listed as Compound T-62
Description: As indicated above, Compound T62 is an effective treatment for neuropathic pain at a dose of 15 mg/kg by intraperitoneal (i.p.) injection. In addition, the safety of T62 was evaluated at 64, 128, 256, 512 and 1024 mg/kg (Table 1).

[4] = system: carrageenan-induced hyperalgesia in rats; assay: carrageenan paw model of inflammatory pain, Hargreaves thermal withdrawal; type: in vivo, rat
Description: Compound T62 was tested for its efficacy in treating inflammatory pain by use of the carrageenan paw model. Carrageenan is a water-extractable polysaccharide obtained from seaweeds. […] Carrageenan-induced hyperalgesia is believed to occur as a consequence of sensitization of primary afferent nociceptors and neuron plasticity intrinsic to the spinal cord.
Animals were prepared with chronic lumbar intrathecal catheters. Baseline measurement of hindpaw withdrawal latency to thermal stimulation were obtained on a Hargreaves device. Animals received a single intrathecal (IT) injection of Compound T-62 ranging from 0.5 to 40 μg. Withdrawal thresholds were measured on a Hargreaves device every 30 minutes for three hours.

[5] = system: phenylbenzoquinone-induced writhing in mice; assay: phenylbenzoquinone (PBQ) writhing test; type: in vivo, mouse
Description: Testing for use of Compound T62 in treatment of persistent chemical pain was performed following the phenylbenzoquinone (PBQ) writhing tests. This method detects general analgesic activity. Mice were injected with phenylbenzoquinone (PBQ) (1.25 mg/kg i.p.). […] The number of writhes was counted for 10 minutes beginning 5 minutes after injection of PBQ. 8 mice were studied for each treatment group and the test was performed blind.

[6] = molecular target: T2, A1 receptor in rat forebrain membranes (Rattus norvegicus, UniProt P25099); details: compound 30 in reference (5), Bruns et al.; read-out: ED50 as an enhancer; cited from earlier work
T2 construct: from tissue; host or cells: rat forebrain membranes
T2 sequence (P25099 1-326): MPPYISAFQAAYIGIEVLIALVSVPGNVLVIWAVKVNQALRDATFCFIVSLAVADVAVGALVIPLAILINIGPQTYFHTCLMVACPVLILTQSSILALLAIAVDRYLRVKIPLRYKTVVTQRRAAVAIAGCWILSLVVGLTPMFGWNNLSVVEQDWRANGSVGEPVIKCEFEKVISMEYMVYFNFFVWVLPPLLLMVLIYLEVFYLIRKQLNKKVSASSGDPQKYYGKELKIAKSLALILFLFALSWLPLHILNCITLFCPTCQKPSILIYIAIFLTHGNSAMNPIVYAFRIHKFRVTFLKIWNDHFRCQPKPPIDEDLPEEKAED

[7] = molecular target: T3, A1 adenosine receptor (Rattus norvegicus, UniProt P25099); details: rat brain, cited from earlier work
T3 construct: from tissue; host or cells: rat brain
T3 sequence (P25099 1-326): T2 sequence (P25099 1-326)

[8] = molecular target: T4, A1 adenosine receptor (Cavia porcellus, UniProt P47745); details: isolated guinea pig left atrium; cited from earlier work
T4 construct: functional studies conducted in the isolated guinea pig left atrium and isolated ileum; from tissue; host or cells: isolated guinea pig ileum
T4 sequence (P47745 1-326): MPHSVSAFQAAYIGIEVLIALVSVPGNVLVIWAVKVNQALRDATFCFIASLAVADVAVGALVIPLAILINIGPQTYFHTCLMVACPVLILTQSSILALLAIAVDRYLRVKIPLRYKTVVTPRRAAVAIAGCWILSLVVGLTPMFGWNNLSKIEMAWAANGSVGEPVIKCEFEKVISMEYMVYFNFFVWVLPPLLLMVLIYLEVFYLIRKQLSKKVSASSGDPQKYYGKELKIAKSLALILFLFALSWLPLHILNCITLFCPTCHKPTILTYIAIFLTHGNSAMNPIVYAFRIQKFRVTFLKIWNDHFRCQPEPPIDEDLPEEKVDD

[9] = molecular target: T4, A1 adenosine receptor; details: isolated ileum; cited from earlier work

## Nc1sc2c(c1C(=O)c1ccc(Cl)cc1)CCCC2 [Compound T62, (2-Amino-4,5,6,7-tetrahydrobenzo[b]thiophen-3-yl)(4-chlorophenyl)methanone]
[1]; CHO:huA1 cells cAMP
  enhancer potency compared to PD 81,723: more potent enhancer than PD 81,723
[1]; CHO:huA1 cells, forskolin 1 μM, CPA, normalized to 10 μM PD 81,723
  concentration at which enhancement of the CPA induced inhibition of cyclic AMP production began: 10 nM
[1]; at 10 μM Compound T62
  antagonism of the A1 receptor: does not antagonize; also recorded: no antagonism
[2]; IP injection, 15 mg/kg
  duration of effect on withdrawal threshold: at least 4 hours
[2]; intraperitoneal injection, 15 mg/kg
  effect on hypersensitivity: effective to reduce hypersensitivity
[2]; intraperitoneal, rats, neuropathic pain
  dose required for efficacy: 15 mg/kg
[2]; intrathecal DPCPX (5 μg)
  effect of intraperitoneal Compound T62 after A1 antagonist: blocked
[2]; intrathecal doses larger than 1-5 μg
  motor effect: obvious motor blockade
[2]; intrathecal injection
  duration of effect on withdrawal threshold: over 4 hours
  time of peak effect: 2 h
  dose returning sensitivity (withdrawal threshold) to normal: 5 µg
[3]
  Irwin test observations: tremor and tip-toe gait
[4]; intrathecal, rats with 2 mg intraplantar carrageenan, n=4
  dose sufficient to completely reverse hypersensitivity of the inflamed foot to pre-carrageenan levels: 1 µg
[4]; normal rats, intrathecal 0.5 to 40 μg
  effect on withdrawal thresholds: no significant effect
[5]; 128 mg/kg i.p. −30 minutes
  NUMBER OF WRITHES (5 to 1 5 min after phenylbenzoquinone) mean ± s.e.m.: 13.9 ± 3.4
  percent change from control: −18%
[5]; 128 mg/kg i.p. −1 hour
  NUMBER OF WRITHES (5 to 1 5 min after phenylbenzoquinone) mean ± s.e.m.: 10.9 ± 2.6
  percent change from control: −58%
[5]; 128 mg/kg i.p. −2 hours
  NUMBER OF WRITHES (5 to 1 5 min after phenylbenzoquinone) mean ± s.e.m.: 17.3 ± 2.0
  percent change from control: −38%
[5]; 128 mg/kg i.p. −4 hours
  NUMBER OF WRITHES (5 to 1 5 min after phenylbenzoquinone) mean ± s.e.m.: 13.1 ± 3.5
  percent change from control: −36%
[5]; 128 mg/kg i.p. −8 hours
  NUMBER OF WRITHES (5 to 1 5 min after phenylbenzoquinone) mean ± s.e.m.: 15.3 ± 4.1
  percent change from control: +11%
[5]; 512 mg/kg i.p. −30 minutes
  NUMBER OF WRITHES (5 to 1 5 min after phenylbenzoquinone) mean ± s.e.m.: 5.9 ± 2.2
  percent change from control: −65%
[5]; 512 mg/kg i.p. −1 hour
  NUMBER OF WRITHES (5 to 1 5 min after phenylbenzoquinone) mean ± s.e.m.: 6.4 ± 1.0
  percent change from control: −75%
[5]; 512 mg/kg i.p. −2 hours
  NUMBER OF WRITHES (5 to 1 5 min after phenylbenzoquinone) mean ± s.e.m.: 3.5 ± 1.8
  percent change from control: −87%
[5]; 512 mg/kg i.p. −4 hours
  NUMBER OF WRITHES (5 to 1 5 min after phenylbenzoquinone) mean ± s.e.m.: 4.8 ± 1.5
  percent change from control: −77%
[5]; 512 mg/kg i.p. −8 hours
  NUMBER OF WRITHES (5 to 1 5 min after phenylbenzoquinone) mean ± s.e.m.: 6.0 ± 1.9
  percent change from control: −56%
[5]; intraperitoneal, mice, chemically induced pain
  dose required for efficacy: 128 mg/kg
[6]
  EC50: 15.3 µM

## CCOC(=O)N1CCc2c(sc(N)c2C(=O)c2ccccc2)C1 [PD 78,416]
[7]; competition studies
  enhancement of [3H]CHA binding: not observed
[7]
  effect on dissociation of [3H]CHA binding: retards the dissociation
[8]
  enhancement of the effect of the agonist CPA: enhanced the effect
[9]
  enhancement of the effect of the agonist CPA: failed to enhance

## Nc1ncnc2c1ncn2[C@@H]1O[C@H](CO)[C@@H](O)[C@H]1O [adenosine, reference compound]
[2]; intrathecal injection
  time of peak effect: 2 h
  dose returning sensitivity (withdrawal threshold) to normal: 30 µg
